Reference: patent US20230041563A1, “N-(1,3,4-OXADIAZOL-2-YL)ARYLCARBOXAMIDES OR SALTS THEREOF, PREPARATION METHODS, HERBICIDAL COMPOSITIONS AND USES THEREOF” (priority 2018, published 2023)

Key:
Assay type in all cases: in vivo
[1] = test system: Abutilon theophrasti; test: Weeding effect in post-emergence stage (greenhouse pot spray)
Procedure, shortened: (§1)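 Post-emergence foliar spray on 2-3 leaf greenhouse pot plants at 15 to 500 g a.i./ha with methyl oleate emulsifiable concentrate (1.5 liter/ha) added; growth control by fresh weight after 3 weeks.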

[2] = test system: Digitaria sanguinalis; test: as above
Procedure, shortened: as §1

[3] = test system: Echinochloa crusgalli; test: as above
Procedure, shortened: as §1

[4] = test system: Setaria viridis; test: as above; settings: Table 3, dose 60 g a.i./ha
Procedure, shortened: as §1

[5] = test system: Amaranthus retroflexus; test: as above
Procedure, shortened: as §1

[6] = test system: Stellaria media; test: as above
Procedure, shortened: as §1

[7] = test system: Abutilon theophrasti; test: Post-emergence control experiment of R configuration compound activity (weeds 4-5 leaf stage, 25 days)
Protocol: (§2) Experiment on weeding effect in post-emergence stage: after 3-4 weeks of sowing, the test plants were treated in the 1.5-2 leaf stage of the directly sowed rice Longyang 16, and the 4-5 leaf stage of weeds. After the application of the compounds of the present invention, the plants were cultured for 25 days in the greenhouse, and then the experimental results of the weeding were counted.

[8] = test system: Digitaria sanguinalis; test: as above
Protocol: as §2

[9] = test system: Green Setaria viridis; test: as above
Protocol: as §2

[10] = test system: Leptochloa chinensis; test: as above
Protocol: as §2

[11] = test system: weeds; test: Actual control effects and combined effects of mixtures of active ingredients (i) and (ii), stem-leaf treatment, Gowing method; settings: stem-leaf treatment, 20 days
[12] = test system: Rice (Longyang 16); test: Post-emergence control experiment of R configuration compound activity (directly sowed rice 1.5-2 leaf stage, 25 days)
Protocol: as §2
Longyang 16 is a representative and important long-grain fragrant rice in Northeast China. Long-grain fragrant rice is more sensitive to herbicides, especially to HPPD herbicides such as Mesotrione, Benzobicylon and the like, which are prone to causing phytotoxicity.

Cc1nnc(NC(=O)c2ccc(C(F)(F)F)c([S+](C)[O-])c2F)o1 (racemic) [Compound 1-2]
Abutilion theophrasti (activity level) ([1]; Table 2, dose 60 g a.i./ha): 4 (Level 4: growth control rate is greater than or equal to 60% and less than 85%)
Abutilion theophrasti (activity level) ([1]; Table 2, dose 125 g a.i./ha): 4 (Level 4: growth control rate is greater than or equal to 60% and less than 85%)
Abutilion theophrasti (activity level) ([1]; Table 2, dose 250 g a.i./ha): 4 (Level 4: growth control rate is greater than or equal to 60% and less than 85%)
Abutilion theophrasti (activity level) ([1]; Table 2, dose 500 g a.i./ha): 4 (Level 4: growth control rate is greater than or equal to 60% and less than 85%)
Abutilon theophrasti (activity level) ([1]; Table 3, dose 60 g a.i./ha): 4 (Level 4: growth control rate is greater than or equal to 60% and less than 85%)
Digitaria sanguinalis (activity level) ([2]; Table 2, dose 60 g a.i./ha): 3 (Level 3: growth control rate is greater than or equal to 40% and less than 60%)
Digitaria sanguinalis (activity level) ([2]; Table 2, dose 125 g a.i./ha): 3 (Level 3: growth control rate is greater than or equal to 40% and less than 60%)
Digitaria sanguinalis (activity level) ([2]; Table 2, dose 250 g a.i./ha): 4 (Level 4: growth control rate is greater than or equal to 60% and less than 85%)
Digitaria sanguinalis (activity level) ([2]; Table 2, dose 500 g a.i./ha): 4 (Level 4: growth control rate is greater than or equal to 60% and less than 85%)
Digitaria sanguinahs (activity level) ([2]; Table 3, dose 60 g a.i./ha): 3 (Level 3: growth control rate is greater than or equal to 40% and less than 60%)
Echinochloa crusgah (activity level) ([3]; Table 2, dose 60 g a.i./ha): 3 (Level 3: growth control rate is greater than or equal to 40% and less than 60%)
Echinochloa crusgah (activity level) ([3]; Table 2, dose 125 g a.i./ha): 4 (Level 4: growth control rate is greater than or equal to 60% and less than 85%)
Echinochloa crusgah (activity level) ([3]; Table 2, dose 250 g a.i./ha): 4 (Level 4: growth control rate is greater than or equal to 60% and less than 85%)
Echinochloa crusgah (activity level) ([3]; Table 2, dose 500 g a.i./ha): 4 (Level 4: growth control rate is greater than or equal to 60% and less than 85%)
Echinochloa crusgali (activity level) ([3]; Table 3, dose 60 g a.i./ha): 3 (Level 3: growth control rate is greater than or equal to 40% and less than 60%)
Setaria viridis (activity level) [4]: 3 (Level 3: growth control rate is greater than or equal to 40% and less than 60%)
Amaranthus retroflexus (activity level) ([5]; Table 2, dose 60 g a.i./ha): 4 (Level 4: growth control rate is greater than or equal to 60% and less than 85%)
Amaranthus retroflexus (activity level) ([5]; Table 2, dose 125 g a.i./ha): 4 (Level 4: growth control rate is greater than or equal to 60% and less than 85%)
Amaranthus retroflexus (activity level) ([5]; Table 2, dose 250 g a.i./ha): 4 (Level 4: growth control rate is greater than or equal to 60% and less than 85%)
Amaranthus retroflexus (activity level) ([5]; Table 2, dose 500 g a.i./ha): 4 (Level 4: growth control rate is greater than or equal to 60% and less than 85%)
Stellaria media (activity level) ([6]; Table 2, dose 60 g a.i./ha): 3 (Level 3: growth control rate is greater than or equal to 40% and less than 60%)
Stellaria media (activity level) ([6]; Table 2, dose 125 g a.i./ha): 3 (Level 3: growth control rate is greater than or equal to 40% and less than 60%)
Stellaria media (activity level) ([6]; Table 2, dose 250 g a.i./ha): 4 (Level 4: growth control rate is greater than or equal to 60% and less than 85%)
Stellaria media (activity level) ([6]; Table 2, dose 500 g a.i./ha): 4 (Level 4: growth control rate is greater than or equal to 60% and less than 85%)
Ablation theophrasti (30 g a.i./ha) inhibition rate ([7]; 30 g a.i./ha): 60%
Digitaria sanguinalis (30 g a.i./ha) inhibition rate ([8]; 30 g a.i./ha): 0%
Green Setaria viridis (60 g a.i./ha) inhibition rate ([9]; 60 g a.i./ha): 20%
Leptochloa chinensis (60 g a.i./ha) inhibition rate ([10]; 60 g a.i./ha): 0%
Control effect of (i) alone at corresponding dose ([11]; Cyperus difformis, (i) 1 g a.i./mu): 7.8%
Control effect of (i) alone at corresponding dose ([11]; Cyperus difformis, (i) 5 g a.i./mu): 36.5%
Control effect of (i) alone at corresponding dose ([11]; Digitaria sanguinalis, (i) 1 g a.i./mu): 18.2%
Control effect of (i) alone at corresponding dose ([11]; Digitaria sanguinalis, (i) 2 g a.i./mu): 40.6%
Control effect of (i) alone at corresponding dose ([11]; Digitaria sanguinalis, (i) 3 g a.i./mu): 65.3%
Control effect of (i) alone at corresponding dose ([11]; Echinochloa phyllopogon, (i) 1 g a.i./mu): 12.6%
Control effect of (i) alone at corresponding dose ([11]; Echinochloa phyllopogon, (i) 2 g a.i./mu): 26.8%
Control effect of (i) alone at corresponding dose ([11]; Echinochloa phyllopogon, (i) 3 g a.i./mu): 53.7%
Control effect of (i) alone at corresponding dose ([11]; Leptochloa chinensis, (i) 5 g a.i./mu): 6.5%
Control effect of (i) alone at corresponding dose ([11]; Leptochloa chinensis, (i) 15 g a.i./mu): 30.6%
Control effect of (i) alone at corresponding dose ([11]; Monochoria vaginalis, (i) 3 g a.i./mu): 7.8%
Control effect of (i) alone at corresponding dose ([11]; Monochoria vaginalis, (i) 5 g a.i./mu): 7.8%
Control effect of (i) alone at corresponding dose ([11]; Monochoria vaginalis, (i) 15 g a.i./mu): 30.9%
Control effect of (i) alone at corresponding dose ([11]; Sagittaria trifolia, (i) 1 g a.i./mu): 19.7%
Control effect of (i) alone at corresponding dose ([11]; Sagittaria trifolia, (i) 3 g a.i./mu): 50.3%

CCC[S@+]([O-])c1c(C(F)(F)F)ccc(C(=O)Nc2nnc(C)o2)c1F [1-8 (S-configuration)]
inhibition at 30 g/ha ([7]; Abutilon theophrasti, post-emergence, read-out: Ablation theophrasti (30 g a.i./ha) inhibition rate): 0%
inhibition at 30 g/ha ([8]; Digitaria sanguinalis, post-emergence, read-out: Digitaria sanguinalis (30 g a.i./ha) inhibition rate): 0%
inhibition at 30 g/ha ([9]; Setaria viridis, post-emergence, read-out: Green Setaria viridis (30 g a.i./ha) inhibition rate): 0%
inhibition at 60 g/ha ([9]; Setaria viridis, post-emergence, read-out: Green Setaria viridis (60 g a.i./ha) inhibition rate): 15%
inhibition at 60 g/ha ([10]; Dinebra chinensis, post-emergence, read-out: Leptochloa chinensis (60 g a.i./ha) inhibition rate): 0%
inhibition at 125 g/ha ([10]; Dinebra chinensis, post-emergence, read-out: Leptochloa chinensis (125 g a.i./ha) inhibition rate): 10%
activity against key weed Leptochloa chinensis / key weeds, in words ([10]; in vivo): lower activity
Rice (Longyang 16) (250 g a.i./ha) inhibition rate ([12]; 250 g a.i./ha): 15%
Rice (Longyang 16) (500 g a.i./ha) inhibition rate ([12]; 500 g a.i./ha): 25%
safety on rice (Longyang 16), in words ([12]; in vivo): not safe
